# Reference: article PMC7012011, “In vitro inhibitory effects of dihydromyricetin on human liver cytochrome P450 enzymes” (Pharmaceutical Biology, 2017)
# Legend:
# CYP2E1 [1] = target: T1, CYP2E1 (Homo sapiens, UniProt P05181); assay: CYP2E1 inhibition, chlorzoxazone 6-hydroxylation in pooled HLMs; assay type: in vitro ADME
# T1 construct: CYP2E1 catalyzed reactions (chlorzoxazone 6-hydroxylation) in pooled HLM; from tissue; host or cells: pooled human liver microsomes
# CYP2C9 = target: T2, CYP2C9 (Homo sapiens, UniProt P11712); assay: CYP2C9 inhibition, diclofenac 4'-hydroxylation in pooled HLMs; assay type: in vitro ADME; settings: DHM 100 μM
# T2 construct: from tissue; host or cells: pooled human liver microsomes
# T2 sequence (P11712 whole entry): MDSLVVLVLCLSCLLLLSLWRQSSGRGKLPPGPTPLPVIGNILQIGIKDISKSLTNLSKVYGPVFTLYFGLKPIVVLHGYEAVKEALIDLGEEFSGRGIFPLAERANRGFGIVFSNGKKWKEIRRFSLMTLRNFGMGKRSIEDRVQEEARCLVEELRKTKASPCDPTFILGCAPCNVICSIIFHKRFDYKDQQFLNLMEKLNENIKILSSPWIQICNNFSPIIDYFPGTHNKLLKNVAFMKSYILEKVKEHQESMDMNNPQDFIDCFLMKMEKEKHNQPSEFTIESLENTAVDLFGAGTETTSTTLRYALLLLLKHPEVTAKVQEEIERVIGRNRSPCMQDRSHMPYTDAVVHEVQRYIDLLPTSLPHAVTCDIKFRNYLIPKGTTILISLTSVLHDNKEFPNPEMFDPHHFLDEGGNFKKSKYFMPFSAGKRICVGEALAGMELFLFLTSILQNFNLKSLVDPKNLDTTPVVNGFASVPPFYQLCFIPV
# Protocol: (§1) All incubations were performed in triplicate, and the mean values were utilized. The typical incubation systems contained 100 mM potassium phosphate buffer (pH 7.4), NADPH-generating system (1 mM NADP^+, 10 mM glucose-6-phosphate, 1 U/mL of glucose-6-phosphate dehydrogenase, and 4 mM MgCl2), the appropriate concentration of HLM, a corresponding probe substrate and DHM (or positive inhibitor for different probe reactions) in a final volume of 200 μL.
# (§2) The concentration of DHM was 100 μM, and the positive inhibitor concentrations were as follows: 10 μM furafylline for CYP1A2, 1 μM ketoconazole for CYP3A4, 10 μM tranylcypromine for CYP2A6, 50 μM clomethiazole for CYP2E1, 10 μM quinidine for CYP2D6, 10 μM sulphaphenazole for CYP2C9, 50 μM tranylcypromine for CYP2C19 and 5 μM montelukast for CYP2C8. Probe substrates, positive inhibitors (except for dextromethorphan and quinidine which were dissolved in water) and DHM were dissolved in methanol, with a final concentration of 1% (v/v), and 1% neat methanol was added to the incubations without inhibitor. […] The instrument used in this study were Agilent 1260 series instrument with DAD and FLD detector (Agilent Technologies, Palo Alto, CA), and the quantitative assay for the corresponding metabolites was performed as previously reported by us (Zhang et al. [2016]). […]
# CYP2A6 = target: T3, CYP2A6 (Homo sapiens, UniProt P11509); assay: CYP2A6 inhibition, coumarin 7-hydroxylation in pooled HLMs; assay type: in vitro ADME; settings: DHM 100 μM
# T3 construct: from tissue; host or cells: pooled human liver microsomes
# T3 sequence (P11509 1-494): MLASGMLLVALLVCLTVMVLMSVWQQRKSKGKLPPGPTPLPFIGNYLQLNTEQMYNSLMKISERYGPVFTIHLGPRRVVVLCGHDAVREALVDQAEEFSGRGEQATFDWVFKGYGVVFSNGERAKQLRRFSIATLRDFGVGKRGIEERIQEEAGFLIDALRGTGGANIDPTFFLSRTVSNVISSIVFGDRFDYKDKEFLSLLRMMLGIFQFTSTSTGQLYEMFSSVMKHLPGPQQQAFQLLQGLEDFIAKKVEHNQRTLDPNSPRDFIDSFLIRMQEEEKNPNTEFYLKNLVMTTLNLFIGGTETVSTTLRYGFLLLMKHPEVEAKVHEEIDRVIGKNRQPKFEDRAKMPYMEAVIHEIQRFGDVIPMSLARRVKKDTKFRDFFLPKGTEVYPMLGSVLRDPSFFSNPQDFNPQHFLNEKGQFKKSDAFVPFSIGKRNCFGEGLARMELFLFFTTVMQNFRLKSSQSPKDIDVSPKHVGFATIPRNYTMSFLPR
# Protocol: as §1, §2
# CYP3A4 [2] = target: T4, CYP3A4 (Homo sapiens, UniProt P08684); assay: Time-dependent inhibition study of CYP3A4 in HLMs; assay type: in vitro ADME
# T4 construct: CYP3A4 catalyzed reactions (testosterone 6β-hydroxylation) in pooled HLM; from tissue; host or cells: pooled human liver microsomes
# T4 sequence (P08684 whole entry): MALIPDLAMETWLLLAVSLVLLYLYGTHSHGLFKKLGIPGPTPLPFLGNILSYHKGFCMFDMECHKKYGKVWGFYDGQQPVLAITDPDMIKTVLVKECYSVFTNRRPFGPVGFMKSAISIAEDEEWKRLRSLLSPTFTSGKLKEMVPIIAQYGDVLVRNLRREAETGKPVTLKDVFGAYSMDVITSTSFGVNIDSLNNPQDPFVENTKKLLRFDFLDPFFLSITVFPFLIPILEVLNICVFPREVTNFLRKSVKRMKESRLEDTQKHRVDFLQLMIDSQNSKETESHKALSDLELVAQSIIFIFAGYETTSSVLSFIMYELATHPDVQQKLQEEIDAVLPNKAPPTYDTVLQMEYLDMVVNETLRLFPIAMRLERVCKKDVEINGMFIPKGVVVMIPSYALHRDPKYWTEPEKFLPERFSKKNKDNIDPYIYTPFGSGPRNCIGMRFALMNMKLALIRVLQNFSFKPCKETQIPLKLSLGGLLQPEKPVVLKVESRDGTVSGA
# Protocol: (§3) To determine whether DHM could inhibit the activity of CYP3A4, CYP2E1 and CYP2D6 in a time-dependent manner, DHM (20 μM) was pre-incubated with HLMs (1 mg/mL) in the presence of an NADPH-generating system for 30 min at 37 °C. After incubation, an aliquot (20 μL) was transferred to another incubation tube (a final volume of 200 μL) containing an NADPH-generating system and probe substrates whose final concentrations were approximate to Km. Then, further incubations were performed to measure the residual activity. After being incubated for 10 and 30 min, the reactions were terminated by adding a 100 μL acetonitrile internal standard mix and then placed on ice; the corresponding metabolites was determined by HPLC.
# To determine the KI and kinact values for the inactivation of CYP3A4, the incubations were conducted using higher probe substrate concentrations (approximately four-fold Km values) and various concentrations of DHM (0–50 μM) after different preincubation times (0–30 min), with a two-step incubation scheme, as described above.
# CYP2D6 [3] = target: T5, CYP2D6 (Homo sapiens, UniProt P10635); assay: Time-dependent inhibition study of CYP2D6 in HLMs; assay type: in vitro ADME; settings: DHM 20 μM, pre-incubation with HLM and NADPH for 30 min
# T5 construct: CYP2D6 catalyzed reactions (dextromethorphan O-demethylation) in pooled HLM; from tissue; host or cells: pooled human liver microsomes
# T5 sequence (P10635 whole entry): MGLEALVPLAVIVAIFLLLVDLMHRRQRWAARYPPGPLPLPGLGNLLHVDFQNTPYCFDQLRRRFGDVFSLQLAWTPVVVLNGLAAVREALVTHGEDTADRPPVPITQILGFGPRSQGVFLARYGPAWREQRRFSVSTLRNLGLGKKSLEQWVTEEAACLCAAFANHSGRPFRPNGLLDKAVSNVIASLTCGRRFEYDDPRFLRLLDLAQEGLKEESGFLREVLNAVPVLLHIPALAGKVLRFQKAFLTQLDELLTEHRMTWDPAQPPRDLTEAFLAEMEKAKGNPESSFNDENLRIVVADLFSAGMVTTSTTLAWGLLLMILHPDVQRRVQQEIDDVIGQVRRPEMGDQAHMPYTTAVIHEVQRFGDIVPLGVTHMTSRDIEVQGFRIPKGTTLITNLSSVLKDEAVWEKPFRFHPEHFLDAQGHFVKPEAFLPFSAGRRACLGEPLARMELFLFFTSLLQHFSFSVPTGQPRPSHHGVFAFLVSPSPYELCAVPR
# Protocol: as §3
# CYP3A4 [4] = target: T4, CYP3A4; assay: CYP3A4 inhibition, testosterone 6β-hydroxylation in pooled HLMs; assay type: in vitro ADME
# Protocol: as §1
# (§4) The concentration of DHM was 100 μM, and the positive inhibitor concentrations were as follows: 10 μM furafylline for CYP1A2, 1 μM ketoconazole for CYP3A4, 10 μM tranylcypromine for CYP2A6, 50 μM clomethiazole for CYP2E1, 10 μM quinidine for CYP2D6, 10 μM sulphaphenazole for CYP2C9, 50 μM tranylcypromine for CYP2C19 and 5 μM montelukast for CYP2C8. Probe substrates, positive inhibitors (except for dextromethorphan and quinidine which were dissolved in water) and DHM were dissolved in methanol, with a final concentration of 1% (v/v), and 1% neat methanol was added to the incubations without inhibitor. There was a 3-min preincubation period (at 37 °C) before the reaction was initiated by adding a NADPH-generating system. The reaction was terminated by adding a 100 μL acetonitrile (10% trichloroacetic acid for CYP2A6) internal standard mix, and the solution was placed on ice. The mixture was centrifuged at 12,000 rpm for 10 min, and an aliquot (50 μL) of supernatant was transferred for HPLC analysis. The instrument used in this study were Agilent 1260 series instrument with DAD and FLD detector (Agilent Technologies, Palo Alto, CA), and the quantitative assay for the corresponding metabolites was performed as previously reported by us (Zhang et al. [2016]).
# (§5) A 100 μM DHM was used to initially screen for its direct inhibitory effects toward different human CYP isoforms. […] The residual activity of the CYP isoforms were measured by adding different concentrations of DHM (0–100 μM), and then the IC50 values were calculated. […]
# (§6) The enzyme kinetic parameters for the probe reaction were estimated from the best fit line using least-squares linear regression of the inverse substrate concentration versus the inverse velocity (Lineweaver–Burk plots), and the mean values were used to calculate Vmax and Km. Inhibition data from the experiments that were conducted using multiple compound concentrations were represented by Dixon plots, and inhibition constant (Ki) values were calculated using non-linear regression according to the following equation: v=(VmaxS)/(Km(1+I/Ki)+S), where I is the concentration of the compound, Ki is the inhibition constant, S is the concentration of the substrate and Km is the substrate concentration at half the maximum velocity (Vmax) of the reaction. […]
# CYP2E1 [5] = target: T1, CYP2E1; assay: Time-dependent inhibition study of CYP2E1 in HLMs; assay type: in vitro ADME; settings: DHM 20 μM, pre-incubation with HLM and NADPH for 30 min
# Protocol: as §3
# CYP2C8 = target: T6, CYP2C8 (Homo sapiens, UniProt P10632); assay: CYP2C8 inhibition, paclitaxel 6α-hydroxylation in pooled HLMs; assay type: in vitro ADME; settings: DHM 100 μM
# T6 construct: from tissue; host or cells: pooled human liver microsomes
# T6 sequence (P10632 1-490): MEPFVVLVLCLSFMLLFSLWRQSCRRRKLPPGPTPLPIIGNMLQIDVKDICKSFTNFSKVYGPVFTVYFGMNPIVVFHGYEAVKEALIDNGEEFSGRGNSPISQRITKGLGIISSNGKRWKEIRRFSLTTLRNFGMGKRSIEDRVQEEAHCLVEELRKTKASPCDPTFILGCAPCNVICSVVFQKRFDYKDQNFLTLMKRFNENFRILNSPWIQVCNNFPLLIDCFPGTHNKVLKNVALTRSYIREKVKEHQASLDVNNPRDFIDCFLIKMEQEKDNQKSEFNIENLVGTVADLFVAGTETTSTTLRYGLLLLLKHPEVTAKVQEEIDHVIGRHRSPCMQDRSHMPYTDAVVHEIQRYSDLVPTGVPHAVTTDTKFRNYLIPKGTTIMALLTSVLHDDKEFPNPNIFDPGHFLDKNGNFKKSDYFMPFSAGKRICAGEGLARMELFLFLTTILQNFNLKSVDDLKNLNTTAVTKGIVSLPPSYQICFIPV
# Protocol: as §1, §2
# CYP2C19 = target: T7, CYP2C19 (Homo sapiens, UniProt P33261); assay: CYP2C19 inhibition, S-mephenytoin 4-hydroxylation in pooled HLMs; assay type: in vitro ADME; settings: DHM 100 μM
# T7 construct: from tissue; host or cells: pooled human liver microsomes
# T7 sequence (P33261 whole entry): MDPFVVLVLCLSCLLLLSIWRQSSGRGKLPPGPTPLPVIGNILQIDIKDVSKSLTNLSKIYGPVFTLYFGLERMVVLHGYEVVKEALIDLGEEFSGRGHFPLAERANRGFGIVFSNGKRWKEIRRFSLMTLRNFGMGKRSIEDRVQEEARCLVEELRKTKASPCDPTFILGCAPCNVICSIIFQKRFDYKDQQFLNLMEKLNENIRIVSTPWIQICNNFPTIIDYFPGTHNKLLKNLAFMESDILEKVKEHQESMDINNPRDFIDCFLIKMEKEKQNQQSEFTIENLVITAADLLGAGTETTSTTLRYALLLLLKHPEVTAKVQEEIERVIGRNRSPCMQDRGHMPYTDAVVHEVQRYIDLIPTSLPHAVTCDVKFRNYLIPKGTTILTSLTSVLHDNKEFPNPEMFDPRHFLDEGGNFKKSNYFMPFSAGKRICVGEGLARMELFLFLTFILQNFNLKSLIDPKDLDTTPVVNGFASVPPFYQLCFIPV
# Protocol: as §1, §2
# [6] = set-up: method as in Zhang et al. [2007]; Tong et al. [2015]; settings: rats, oral administration of 1564.8 mg/kg of Rattan Tea decoction; ref Zhang et al. [2007]; Tong et al. [2015]; cited from earlier work
# CYP1A2 = target: T8, CYP1A2 (Homo sapiens, UniProt P05177); assay: CYP1A2 inhibition, phenacetin O-deethylation in pooled HLMs; assay type: in vitro ADME; settings: DHM 100 μM
# T8 construct: from tissue; host or cells: pooled human liver microsomes
# T8 sequence (P05177 1-516): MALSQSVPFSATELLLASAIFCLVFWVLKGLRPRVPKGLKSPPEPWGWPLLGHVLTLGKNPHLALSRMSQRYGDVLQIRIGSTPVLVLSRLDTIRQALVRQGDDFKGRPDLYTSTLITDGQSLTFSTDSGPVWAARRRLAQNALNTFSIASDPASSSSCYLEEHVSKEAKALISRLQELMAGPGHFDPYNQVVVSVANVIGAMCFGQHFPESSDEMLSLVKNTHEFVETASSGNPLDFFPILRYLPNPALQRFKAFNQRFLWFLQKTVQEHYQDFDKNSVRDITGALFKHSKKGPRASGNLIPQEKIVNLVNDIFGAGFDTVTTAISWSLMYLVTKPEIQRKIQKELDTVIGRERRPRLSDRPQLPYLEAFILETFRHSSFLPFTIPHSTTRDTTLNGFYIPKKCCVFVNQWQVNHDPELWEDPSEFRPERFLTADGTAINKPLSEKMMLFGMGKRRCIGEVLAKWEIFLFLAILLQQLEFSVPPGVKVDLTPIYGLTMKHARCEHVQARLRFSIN
# Protocol: as §1, §2
# CYP2D6 [7] = target: T5, CYP2D6; assay: CYP2D6 inhibition, dextromethorphan O-demethylation in pooled HLMs; assay type: in vitro ADME
# Protocol: as §1, §4, §5, §6
# T1 sequence (P05181 whole entry): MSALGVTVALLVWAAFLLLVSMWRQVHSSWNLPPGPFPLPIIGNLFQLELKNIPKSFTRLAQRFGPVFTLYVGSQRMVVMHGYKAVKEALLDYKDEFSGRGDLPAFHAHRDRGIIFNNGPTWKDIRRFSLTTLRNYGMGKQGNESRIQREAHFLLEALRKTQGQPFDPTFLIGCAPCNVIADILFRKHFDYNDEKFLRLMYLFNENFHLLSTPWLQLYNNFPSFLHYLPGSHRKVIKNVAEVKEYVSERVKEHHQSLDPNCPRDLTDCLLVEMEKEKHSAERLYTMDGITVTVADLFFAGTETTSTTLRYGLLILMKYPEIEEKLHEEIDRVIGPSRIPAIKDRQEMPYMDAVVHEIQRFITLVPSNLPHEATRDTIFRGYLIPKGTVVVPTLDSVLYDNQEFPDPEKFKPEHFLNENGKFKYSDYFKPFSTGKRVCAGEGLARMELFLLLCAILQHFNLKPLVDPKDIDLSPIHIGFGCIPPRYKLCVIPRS
smiles,measurement,setting,value
"O=C1c2c(O)cc(O)cc2O[C@H](c2cc(O)c(O)c(O)c2)[C@H]1O [DHM, Dihydromyricetin]",IC50,"CYP2E1 [1]; DHM 0–100 μM, pooled HLMs",25.7 µM
same,Manner of inhibition of CYP2E1,CYP2E1 [1]; Lineweaver–Burk plots,competitive
same,inhibition at 100 μM,"CYP2E1 [1]; human, pooled human liver microsomes, pH 7.4, probe chlorzoxazone (6-hydroxylation), DHM 100 μM, pooled HLMs, read-out: CYP2E1 activity inhibited to % of control activity",74.6%
same,Ki,"CYP2E1 [1]; secondary Lineweaver–Burk plot, chlorzoxazone, DHM 0–50 μM, pooled HLM",9.24 µM
same,Inhibition of CYP2C9 activity,CYP2C9,did not inhibit
same,Inhibition of CYP2A6 activity,CYP2A6,did not inhibit
same,Time-dependent inhibition: activity of CYP3A4 after pre-incubation,"CYP3A4 [2]; DHM 20 μM, pre-incubation with HLM and NADPH for 30 min",decreased with the incubation time
same,KI (inactivation),"CYP3A4 [2]; human, human liver microsomes, DHM 0–50 μM, preincubation 0–30 min, non-linear regression, HLM",12.2 µM
same,kinact,"CYP3A4 [2]; human, human liver microsomes, DHM 0–50 μM, preincubation 0–30 min, non-linear regression, HLM, read-out: Kinact for inactivation of CYP3A4 (converted)",0.00095 s⁻¹
same,CYP3A4 inactivated each minute,"CYP3A4 [2]; saturating concentration of DHM incubated with HLM, implied by Kinact",approximately 5.7%
same,Time-dependent inhibition: activity of CYP2D6 after pre-incubation,CYP2D6 [3],not affected
same,IC50,"CYP3A4 [4]; DHM 0–100 μM, pooled HLMs",14.8 µM
same,Manner of inhibition of CYP3A4,CYP3A4 [4]; Lineweaver–Burk plots,non-competitive
same,inhibition at 100 μM,"CYP3A4 [4]; human, pooled human liver microsomes, pH 7.4, probe testosterone (6β-hydroxylation), DHM 100 μM, pooled HLMs, read-out: CYP3A4 activity inhibited to % of control activity",87.7%
same,Ki,"CYP3A4 [4]; secondary Lineweaver–Burk plot, testosterone 20–100 μM, pooled HLM",6.06 µM
same,Time-dependent inhibition: activity of CYP2E1 after pre-incubation,CYP2E1 [5],not affected
same,Inhibition of CYP2C8 activity,CYP2C8,did not inhibit
same,Inhibition of CYP2C19 activity,CYP2C19,did not inhibit
same,Cmax,[6],1700 ng/mL
same,Inhibition of CYP1A2 activity,CYP1A2,did not inhibit
same,IC50,"CYP2D6 [7]; DHM 0–100 μM, pooled HLMs",22.7 µM
same,Manner of inhibition of CYP2D6,CYP2D6 [7]; Lineweaver–Burk plots,competitive
same,inhibition at 100 μM,"CYP2D6 [7]; human, pooled human liver microsomes, pH 7.4, probe dextromethorphan (O-demethylation), DHM 100 μM, pooled HLMs, read-out: CYP2D6 activity inhibited to % of control activity",85.3%
same,Ki,"CYP2D6 [7]; secondary Lineweaver–Burk plot, dextromethorphan 5–50 μM, DHM 0–50 μM, pooled HLM",10.5 µM
